Measurements taken from ChEMBL document CHEMBL1151573, “Cyclic homopentapeptides 3. Synthetic modifications to the capreomycins and tuberactinomycins: Compounds with activity against methicillin-resistant Staphylococcus aureus and vancomycin-resistant enterococci” (1997).
≈ marks a conversion by molar mass, not a printed value. Numbered stars: 1 amine (or outer) side, 2 acyl side, 3 side chain; on linkers, the order of the positions; unused ones are H or OH. Bridge positions count the residues as written; N and C are the ends. Square brackets hold non-standard residues; d marks the D form. Side chains are listed from the residue outwards. Peptide text beside a SMILES is read from it. * marks the point of attachment. ξ: configuration not given here. NH(4-cHex-phenyl) = c1cc(C2CCCCC2)ccc1N*; X1 = NC1=NCCC([C@H](N[*:1])C(=O)[*:2])N1; X2 = N=C1NCCC([C@H](N[*:1])C(=O)[*:2])N1; ΔAla(Z-3-ureido) = NC(=O)N/C=C(\N)C(=O)O; ΔDap(Z) = O=C(/C(=C/N[*:3])N[*:1])[*:2]; β3hR = N=C(N)NCCC[C@H](N)CC(=O)O; β3hOrn = NCCC[C@H](N)CC(=O)*; ξβ3hOrn = NCCCC(N)CC(=O)*; Dap = NC[C@H](N)C(=O)O; X3 = NCC[C@H](O)C(=O)*; CO = O=C([*:1])[*:2]; ξDap = NCC(N)C(=O)O

Experiments:
[1] = system: Staphylococcus aureus; test: Antibacterial activity against Staphylococcus aureus (erythromycin- resistant, methicillin-resistant, ciprofloxacin- resistant) was determined; assay type: functional
[2] = Antibacterial activity against Enterococcus faecium (vancomycin-resistant, erythromycin-resistant, ciprofloxacin-resistant); assay type: functional
[3] = Antibacterial activity against Enterococcus faecalis (vancomycin-resistant, methicillin-resistant, ciprofloxacin-resistant); assay type: functional, erythromycin faecalis

NCC1NC(=O)[C@H](CO)NC(=O)[C@H](CO)NC(=O)C(NC(=O)Nc2ccc(C3CCCCC3)cc2)CNC(=O)[C@H](C2CCN=C(N)N2)NC1=O (stereo not given in full) ({NH(4-cHex-phenyl)-CO}-[ξDap]SS[ξDap][X1]; lactam 1-C)
MIC [1]: > 100 µg/mL
MIC [2]: > 100 µg/mL
MIC [3]: > 100 µg/mL

CN[C@H](CC(C)C)C(=O)N[C@H]1C(=O)N[C@@H](CC(N)=O)C(=O)N[C@H]2C(=O)N[C@H]3C(=O)N[C@H](C(=O)N[C@H](C(=O)O)c4cc(O)cc(O)c4-c4cc3ccc4O)[C@H](O)c3ccc(c(Cl)c3)Oc3cc2cc(c3O[C@@H]2O[C@H](CO)[C@@H](O)[C@H](O)[C@H]2O[C@H]2C[C@](C)(N)[C@H](O)[C@H](C)O2)Oc2ccc(cc2Cl)[C@H]1O [VANCOMYCIN]
MIC [1]: 0.78 µg/mL (≈ 0.538 µM)
MIC [2]: > 100 µg/mL
MIC [3]: > 100 µg/mL

NC1=NC([C@H]2NC(=O)/C(=C/NC(=O)Nc3ccc(C4CCCCC4)cc3)NC(=O)[C@@H](CO)NC(=O)[C@@H](CO)NC(=O)C(NC(=O)Nc3ccc(Br)cc3)CNC2=O)CCN1 (stereo not given in full)
MIC [1]: 12.5 µg/mL (≈ 13.9 µM)
MIC [2]: 6.25 µg/mL (≈ 6.96 µM)
MIC [3]: 12.5 µg/mL (≈ 13.9 µM)

O=C(N/N=C/c1cccc2c(OCc3ccc(OC(F)(F)F)cc3)cccc12)c1ccc(O)c(Cl)c1
MIC [1]: 25 µg/mL (≈ 48.6 µM)
MIC [2]: 3.12 µg/mL (≈ 6.06 µM)
MIC [3]: 12.5 µg/mL (≈ 24.3 µM)

NCCC[C@H](N)CC(=O)NC[C@@H]1NC(=O)[C@H](CO)NC(=O)C(N)CNC(=O)[C@H](C2CCN=C(N)N2)NC(=O)/C(=C/NC(=O)Nc2ccc(C3CCCCC3)cc2)NC1=O (stereo partly drawn) (H-[ξDap]S[Dap](β3hOrn)[ΔDap(Z)]([CO-NH(4-cHex-phenyl)])[X1]; lactam 1-C)
MIC [1]: 1.56 µg/mL (≈ 1.89 µM)
MIC [2]: 3.12 µg/mL (≈ 3.77 µM)
MIC [3]: 3.12 µg/mL (≈ 3.77 µM)

NCC[C@@H](O)[C@H](N)CC(=O)NC1CNC(=O)[C@@H](C2CCN=C(N)N2)NC(=O)/C(=C/Nc2ccc(Cl)c(Cl)c2)NC(=O)[C@@H](CO)NC(=O)[C@@H](CO)NC1=O (stereo not given in full)
MIC [1]: 12.5 µg/mL (≈ 15.9 µM)
MIC [2]: 25 µg/mL (≈ 31.7 µM)
MIC [3]: 50 µg/mL (≈ 63.5 µM)

C[C@@H]1NC(=O)[C@@H](N)CNC(=O)[C@H](C2CCNC(=N)N2)NC(=O)/C(=C/NC(N)=O)NC(=O)[C@H](CNC(=O)CC(N)CCCN)NC1=O.N=C1NCCC([C@@H]2NC(=O)/C(=C/NC(N)=O)NC(=O)[C@H](CNC(=O)CC(N)CCCN)NC(=O)[C@H](CO)NC(=O)[C@@H](N)CNC2=O)N1 (stereo partly drawn) [CAPREOMYCIN] (H-[Dap]S[Dap](ξβ3hOrn)[ΔAla(Z-3-ureido)][X2]; lactam 1-C)
MIC [1]: 100 µg/mL
MIC [2]: > 1000 µg/mL
MIC [3]: > 1000 µg/mL

NCCCNCCC(=O)NC1CNC(=O)[C@@H](C2CCN=C(N)N2)NC(=O)/C(=C/Nc2ccc(Cl)c(Cl)c2)NC(=O)[C@@H](CO)NC(=O)[C@@H](CO)NC1=O (stereo not given in full)
MIC [1]: 50 µg/mL (≈ 64.8 µM)
MIC [2]: 50 µg/mL (≈ 64.8 µM)
MIC [3]: 50 µg/mL (≈ 64.8 µM)

NC(N)=NCCC[C@H](N)CC(=O)NC[C@@H]1NC(=O)[C@H](CO)NC(=O)C(N)CNC(=O)[C@H](C2CCN=C(N)N2)NC(=O)/C(=C/NC(=O)Nc2ccc(C3CCCCC3)cc2)NC1=O (stereo partly drawn) (H-[ξDap]S[Dap](β3hR)[ΔDap(Z)]([CO-NH(4-cHex-phenyl)])[X1]; lactam 1-C)
MIC [1]: 1.56 µg/mL (≈ 1.8 µM)
MIC [2]: 3.12 µg/mL (≈ 3.59 µM)
MIC [3]: 3.12 µg/mL (≈ 3.59 µM)

NCCC[C@H](N)CC(=O)NC[C@@H]1NC(=O)[C@H](CO)NC(=O)C(NC(=O)[C@@H](O)CCN)CNC(=O)[C@H](C2CCN=C(N)N2)NC(=O)/C(=C/NC(=O)Nc2ccc(C3CCCCC3)cc2)NC1=O (stereo partly drawn) (X3-[ξDap]S[Dap](β3hOrn)[ΔDap(Z)]([CO-NH(4-cHex-phenyl)])[X1]; lactam 1-C)
MIC [1]: 3.12 µg/mL (≈ 3.36 µM)
MIC [2]: 6.25 µg/mL (≈ 6.73 µM)
MIC [3]: 6.25 µg/mL (≈ 6.73 µM)
